The text below walks through data of article PMC6804997 (PLoS ONE, 2019).

The target in one data set is HDAC4 (Homo sapiens, UniProt P56524). As to the kind of experiment: HDAC enzyme inhibition assay (Ac-peptide-AMC substrate). In kind it is biochemical. How it is done: (§1) HDACs inhibition assay of F7 was performed utilizing 4-amino-7-methylcoumarin (AMC) labeled Ac-peptide (Ac-peptide-AMC) substrates, a service provided by Chempartner Company (Shanghai, China).
(§2) This assay was performed was performed utilizing 4-amino-7-methylcoumarin (AMC) labeled Ac-peptide (Ac-peptide-AMC) substrates, a service provided by Chempartner Company (Shanghai, China).

For another data set, the target named is HDAC5 (Homo sapiens, UniProt Q9UQL6). Described as above. In kind it is biochemical. How it is done:
as §1, §2

The next data set has as its target T1, HDAC6 (Homo sapiens, UniProt Q9UBN7).
T1 sequence (Q9UBN7 1-1215): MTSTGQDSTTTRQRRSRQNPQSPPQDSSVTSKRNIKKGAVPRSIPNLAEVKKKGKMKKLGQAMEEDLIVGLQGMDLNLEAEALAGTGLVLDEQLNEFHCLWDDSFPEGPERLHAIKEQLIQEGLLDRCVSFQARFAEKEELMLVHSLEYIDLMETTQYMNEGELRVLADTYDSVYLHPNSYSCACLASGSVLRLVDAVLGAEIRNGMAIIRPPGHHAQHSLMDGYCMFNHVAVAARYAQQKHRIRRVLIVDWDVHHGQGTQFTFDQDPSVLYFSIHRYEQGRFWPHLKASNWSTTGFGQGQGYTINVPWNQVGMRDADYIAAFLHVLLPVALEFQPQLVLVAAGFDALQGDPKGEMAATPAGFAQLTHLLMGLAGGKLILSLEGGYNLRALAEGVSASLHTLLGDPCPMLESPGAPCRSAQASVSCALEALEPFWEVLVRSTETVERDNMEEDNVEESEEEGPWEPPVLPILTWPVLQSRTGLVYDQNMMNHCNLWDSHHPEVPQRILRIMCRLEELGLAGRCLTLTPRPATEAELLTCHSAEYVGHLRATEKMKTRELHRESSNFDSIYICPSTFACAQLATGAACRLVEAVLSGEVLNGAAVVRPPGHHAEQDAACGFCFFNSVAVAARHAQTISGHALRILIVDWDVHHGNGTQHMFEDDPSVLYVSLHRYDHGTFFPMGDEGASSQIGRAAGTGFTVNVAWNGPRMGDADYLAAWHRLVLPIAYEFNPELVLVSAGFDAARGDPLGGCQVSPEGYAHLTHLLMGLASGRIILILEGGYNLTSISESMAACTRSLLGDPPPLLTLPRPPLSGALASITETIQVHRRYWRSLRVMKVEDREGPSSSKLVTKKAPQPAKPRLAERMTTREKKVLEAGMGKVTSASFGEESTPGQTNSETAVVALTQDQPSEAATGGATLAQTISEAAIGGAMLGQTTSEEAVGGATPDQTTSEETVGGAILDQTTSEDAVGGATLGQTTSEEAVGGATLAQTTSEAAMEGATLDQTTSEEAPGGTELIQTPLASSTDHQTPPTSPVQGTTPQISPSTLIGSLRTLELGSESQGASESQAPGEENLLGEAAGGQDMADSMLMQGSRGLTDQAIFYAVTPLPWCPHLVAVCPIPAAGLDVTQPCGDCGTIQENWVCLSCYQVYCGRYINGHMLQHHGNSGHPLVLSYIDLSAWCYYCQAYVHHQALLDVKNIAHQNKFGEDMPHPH
Described as above. It counts as biochemical. How it is done:
as §1, §2

The test system of data set [1] is liver, kidney, spleen, heart and lung tissues of mice. As to the kind of experiment: Histological examination of organs from normal mice given F7. It counts as in vivo. As to conditions: oral F7 40 mg/kg/d for 3 days, without glycerol injection. The method, then:
We firstly examined whether the mice model of glycerol-induced AKI was successfully established, and tested the protective effect of F7 at a dose of 40 mg/kg/d for 3 days on renal function and pathological changes. […] We also evaluated the liver, kidney, spleen, heart and lung tissues of mice with oral administration of F7 at the same dose as that in F7+glycerol group for 3 days, but without glycerol injections.
Supplementary file pone.0224158.s002.tif: S2 Fig Histological examinations of different organs from the normal mice administrated with F7. Photomicrographs (×200) illustrated H&E staining of the heart, liver, spleen, lung and kidney tissues from mice with oral administration of F7 at a dose of 40 mg/kg/d for 3 days but without glycerol injection. (TIF) Click here for additional data file.

For another data set, the system named is HK-2 cells. The experiment in a line: Annexin V/PI flow cytometry of myoglobin-stimulated HK-2 cells. It counts as cell-based, Human. As to conditions: F7 […], 5 nM and 10 nM; Mb 200 μM, 24 hrs. How it is done: Human renal proximal tubule cell line (HK-2) cells were purchased from Shanghai Institute of Biochemistry and Cell Biology, Shanghai, China and maintained in DMEM/F12 (Hyclone, Beijing, China) supplemented with 10% fetal bovine serum (FBS, Hyclone, Australia) and 1% penicillin and streptomycin at 37°C under humidified atmosphere of 5% carbon dioxide. Then cells were seeded on six-well plates (Shanghai Sunub Bio-Tech Development Inc., Shanghai, China) at a density of 200,000 cells per well, divided into four groups at exponential phase: the control group (cells incubated with DMEM/F12+10%FBS), the model group (cells incubated with 200 μM ferrous myoglobin (M0630, Sigma-Aldrich, St. […]
Cell apoptosis was evaluated by flow cytometry using an Annexin V-FITC apoptosis analysis kit (AO-2001-02P-H, Tianjin Sungene Biotech Co., Ltd, Tianjin, China). After the four group of cells were cultured under the condition as described above for 24 hours, they were digested by trypsin, collected, and washed three times with PBS diluted 1×binding buffer (1ml per tube). […] After being supplemented to 500 μL using cold PBS followed by gentle vortex, samples were ready to be testes. Apoptosis signals were detected using a CytoFLEX by Beckman & Coulter.

Chain of HDAC5 (Q9UQL6 whole entry, species assumed): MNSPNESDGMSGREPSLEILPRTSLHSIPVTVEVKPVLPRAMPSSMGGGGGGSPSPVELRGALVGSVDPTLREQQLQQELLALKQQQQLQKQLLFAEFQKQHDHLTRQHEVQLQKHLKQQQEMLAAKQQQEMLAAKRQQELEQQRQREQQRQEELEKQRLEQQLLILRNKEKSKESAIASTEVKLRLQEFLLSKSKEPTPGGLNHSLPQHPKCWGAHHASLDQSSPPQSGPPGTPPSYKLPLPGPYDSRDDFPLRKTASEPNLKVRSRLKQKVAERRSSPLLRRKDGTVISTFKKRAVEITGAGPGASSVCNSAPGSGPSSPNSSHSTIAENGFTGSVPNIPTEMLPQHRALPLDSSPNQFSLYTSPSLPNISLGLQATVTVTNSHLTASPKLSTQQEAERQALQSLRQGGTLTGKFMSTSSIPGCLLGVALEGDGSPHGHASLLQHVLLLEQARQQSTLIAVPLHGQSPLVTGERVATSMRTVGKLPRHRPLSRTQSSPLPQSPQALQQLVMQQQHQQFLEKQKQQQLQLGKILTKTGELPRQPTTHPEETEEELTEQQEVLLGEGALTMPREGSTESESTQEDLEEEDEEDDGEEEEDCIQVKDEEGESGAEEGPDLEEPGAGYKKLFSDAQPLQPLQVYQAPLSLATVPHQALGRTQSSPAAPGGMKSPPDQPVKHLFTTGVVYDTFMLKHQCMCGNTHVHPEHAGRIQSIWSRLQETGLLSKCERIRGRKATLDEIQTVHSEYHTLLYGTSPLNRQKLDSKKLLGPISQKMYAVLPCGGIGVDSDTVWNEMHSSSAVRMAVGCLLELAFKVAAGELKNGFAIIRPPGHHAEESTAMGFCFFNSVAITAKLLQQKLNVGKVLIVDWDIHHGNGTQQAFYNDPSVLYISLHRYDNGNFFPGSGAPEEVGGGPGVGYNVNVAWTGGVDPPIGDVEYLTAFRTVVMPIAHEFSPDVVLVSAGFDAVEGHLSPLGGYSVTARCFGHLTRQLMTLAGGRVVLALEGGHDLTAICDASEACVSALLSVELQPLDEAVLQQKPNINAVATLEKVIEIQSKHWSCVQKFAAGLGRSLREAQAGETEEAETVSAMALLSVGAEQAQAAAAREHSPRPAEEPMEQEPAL
Chain of HDAC4 (P56524 whole entry, species assumed): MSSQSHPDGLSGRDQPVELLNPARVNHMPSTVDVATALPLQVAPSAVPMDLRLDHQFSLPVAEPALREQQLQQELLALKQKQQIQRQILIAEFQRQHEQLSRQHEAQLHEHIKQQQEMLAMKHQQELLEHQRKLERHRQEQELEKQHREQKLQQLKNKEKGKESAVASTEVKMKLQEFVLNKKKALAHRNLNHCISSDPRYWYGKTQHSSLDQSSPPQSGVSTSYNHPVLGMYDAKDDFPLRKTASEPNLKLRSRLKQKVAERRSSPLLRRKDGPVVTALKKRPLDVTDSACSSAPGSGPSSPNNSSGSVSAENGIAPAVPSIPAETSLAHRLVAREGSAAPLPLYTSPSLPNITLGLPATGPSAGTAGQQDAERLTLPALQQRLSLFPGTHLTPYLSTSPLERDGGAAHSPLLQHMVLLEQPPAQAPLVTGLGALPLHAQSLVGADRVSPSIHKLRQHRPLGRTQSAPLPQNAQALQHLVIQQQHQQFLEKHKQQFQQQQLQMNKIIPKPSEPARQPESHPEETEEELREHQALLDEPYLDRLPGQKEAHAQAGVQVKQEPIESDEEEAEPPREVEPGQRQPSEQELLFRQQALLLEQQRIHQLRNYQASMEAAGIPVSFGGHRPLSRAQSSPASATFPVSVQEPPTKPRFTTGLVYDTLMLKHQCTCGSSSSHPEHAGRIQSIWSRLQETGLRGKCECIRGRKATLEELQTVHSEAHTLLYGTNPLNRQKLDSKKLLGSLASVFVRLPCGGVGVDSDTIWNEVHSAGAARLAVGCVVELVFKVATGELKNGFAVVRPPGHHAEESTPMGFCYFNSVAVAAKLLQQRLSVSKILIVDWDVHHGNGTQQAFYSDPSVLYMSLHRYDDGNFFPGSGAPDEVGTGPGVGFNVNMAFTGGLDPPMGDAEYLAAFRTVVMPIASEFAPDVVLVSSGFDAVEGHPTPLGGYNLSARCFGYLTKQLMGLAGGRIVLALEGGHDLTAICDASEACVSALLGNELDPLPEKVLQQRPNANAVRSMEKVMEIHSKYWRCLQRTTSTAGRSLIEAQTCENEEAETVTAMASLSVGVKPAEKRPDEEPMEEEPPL

Usually IC50 stands for the midpoint of a concentration-inhibition curve. With `Cc1nc(N(C)c2ccc(Oc3ccc(C(=O)NO)cn3)cc2)c2ccccc2n1` [F7, N-hydroxy-6-(4-(methyl(2-methylquinazolin-4-yl)amino)phenoxy)nicotinamide], the IC50 against HDAC4 is > 10 µM. Also, the IC50 at HDAC5 was > 10 µM. Further, at HDAC6, the “HDAC6 inhibition efficacy of F7 compared with 23BB” value is “three times higher”, the IC50 turned out to be 0.0058 µM and the “selectivity of HDAC6 versus other HDACs” value is on record as 110-1724 times. For the same molecule, the “organ damage (histological sections of liver, kidney, spleen, heart and lung)” value in data set [1] was “did not exhibited organ damage”. The “growth of HK-2 cells under stimulation of myoglobin” value in the data set on HK-2 cells is given as “improved growth of HK-2 cells under stimulation of myoglobin (Mb) in a dose-dependent manner”.
